From the CheMixHub drug solubility set

Test: xn = mol fraction of the nth substance listed, in the solute-free solvent

NC(=O)NC1NC(=O)NC1=O (stereo not given) + O + CO
solubility (g/100 g solution)
Conditions | 288.15 K | 293.15 K | 298.15 K | 303.15 K | 308.15 K | 313.15 K | 318.15 K | 323.15 K | 328.15 K | 333.15 K
x2 = 0.2 | 0.0735 | 0.0876 | 0.104 | 0.134 | 0.155 | 0.188 | 0.219 | 0.264 | 0.299 | 0.353
x2 = 0.359 | 0.114 | 0.138 | 0.175 | 0.205 | 0.255 | 0.297 | 0.357 | 0.443 | 0.521 | 0.582
x2 = 0.599 | 0.212 | 0.27 | 0.328 | 0.408 | 0.519 | 0.629 | 0.74 | 0.895 | 1.08 | 1.23
x2 = 0.771 | 0.239 | 0.328 | 0.424 | 0.526 | 0.694 | 0.866 | 1.06 | 1.28 | 1.55 | 1.94
x2 = 0.9 | 0.319 | 0.389 | 0.506 | 0.642 | 0.836 | 1.05 | 1.29 | 1.53 | 1.86 | 2.27

NC(=O)NC1NC(=O)NC1=O (stereo not given) + OCCO + CO
solubility (g/100 g solution)
Conditions | 288.15 K | 293.15 K | 298.15 K | 303.15 K | 308.15 K | 313.15 K | 318.15 K | 323.15 K | 328.15 K | 333.15 K
x2 = 0.154 | 0.124 | 0.146 | 0.174 | 0.21 | 0.242 | 0.287 | 0.338 | 0.396 | 0.461 | 0.524
x2 = 0.326 | 0.188 | 0.22 | 0.268 | 0.336 | 0.395 | 0.438 | 0.508 | 0.566 | 0.651 | 0.732
x2 = 0.521 | 0.305 | 0.338 | 0.387 | 0.447 | 0.531 | 0.613 | 0.66 | 0.756 | 0.83 | 0.938
x2 = 0.744 | 0.455 | 0.481 | 0.55 | 0.634 | 0.702 | 0.78 | 0.851 | 1 | 1.09 | 1.25

NC(=O)NC1NC(=O)NC1=O (stereo not given) + OCCO + O
solubility (g/100 g solution)
Conditions | 288.15 K | 293.15 K | 298.15 K | 303.15 K | 308.15 K | 313.15 K | 318.15 K | 323.15 K | 328.15 K | 333.15 K
x2 = 0.075 | 0.367 | 0.468 | 0.57 | 0.749 | 0.887 | 1.12 | 1.37 | 1.67 | 1.93 | 2.38
x2 = 0.177 | 0.387 | 0.478 | 0.581 | 0.732 | 0.858 | 1.02 | 1.24 | 1.47 | 1.75 | 2.09
x2 = 0.327 | 0.439 | 0.481 | 0.62 | 0.747 | 0.847 | 1 | 1.17 | 1.43 | 1.67 | 1.88
x2 = 0.564 | 0.406 | 0.49 | 0.601 | 0.725 | 0.819 | 0.962 | 1.1 | 1.29 | 1.44 | 1.7
x2 = 0.744 | 0.466 | 0.515 | 0.628 | 0.712 | 0.779 | 0.924 | 1.03 | 1.2 | 1.33 | 1.54
